In ChEMBL document CHEMBL4616724, “Topoisomerase Inhibitors Addressing Fluoroquinolone Resistance in Gram-Negative Bacteria” (J Med Chem, 2020):
Converted amounts (≈) assume the structure as drawn.

Columns and labels:
[1] = tested on: Escherichia coli; assay: Antibacterial activity against wild type Escherichia coli ATCC 25922 at pH 7.4 by CLSI-based broth microdilution assay; assay type: functional
[2] = tested on: Pseudomonas aeruginosa; assay: Antibacterial activity against wild type Pseudomonas aeruginosa PAO1 K767 by CLSI-based broth microdilution assay; assay type: functional
[3] = tested on: Klebsiella pneumoniae; assay: Antibacterial activity against wild type Klebsiella pneumoniae ATCC 43816 by CLSI-based broth microdilution assay; assay type: functional
[4] = tested on: Pseudomonas aeruginosa; assay: Antibacterial activity against Pseudomonas aeruginosa K1542/K767 harboring MexB/MexXY deletion mutant by CLSI-based broth microdilution assay; assay type: functional
[5] = tested on: Pseudomonas aeruginosa; assay: Antibacterial activity against Pseudomonas aeruginosa NB52023 harboring gyrA T83I mutant/ParC S87L mutant by CLSI-based broth microdilution assay; assay type: functional
[6] = tested on: Escherichia coli; assay: Antibacterial activity against Escherichia coli BW25113/JW0451-2 harboring AcrB deletion mutant by CLSI-based broth microdilution assay; assay type: functional
[7] = Photoirradiation factor, ratio of IC50 for BALB/c mouse 3T3 cells under dark condition to IC50 for BALB/c mouse 3T3 cells under 5 J/cm2 sunlight irradiation by neutral red uptake assay; assay type: ADME, cell-based, NIH3T3; settings: BALB/c 3T3 cells, read-out: Ratio IC50
[8] = Dissociation constant, pKa of the compound by UV metric method; assay type: physicochemical
[9] = biological target: DNA gyrase (Escherichia coli, UniProt P0AES4+P0AES6); assay: Inhibition of recombinant full-length C-terminal His6-tagged Escherichia coli DNA gyrase AB supercoiling activity using relaxed DNA as substrate preincubated for 30 mins followed by substrate addition and measured after 2 hrs in presence of ATP by size exclusion HPLC analysis; assay type: protein-complex assay
[10] = Inhibition of recombinant full-length C-terminal His6-tagged Escherichia coli DNA topoisomerase 4 subunit ParC/ParE using kinetoplast DNA as substrate preincubated for 30 mins followed by substrate addition and measured after 1 hr in presence of ATP by size exclusion chromatography
[11] = Selectivity ratio of MIC for Pseudomonas aeruginosa NB52023 harboring gyrA T83I mutant/ParC S87L mutant to MIC for Pseudomonas aeruginosa K1542/K767 harboring MexB/MexXY deletion mutant; assay type: functional
[12] = Solubility of the compound in pH 7 PBS incubated for 24 hrs under gently shaking condition by UPLC/UV/CLND/MS analysis; assay type: physicochemical; settings: PBS, pH 7
[13] = n-Octanol-PBS buffer partition coefficient, log D of the compound at pH 7.4 after overnight incubation by LC/UV/qTOF analysis; assay type: physicochemical
[14] = Protein binding in CD1 mouse plasma at 10 uM incubated for 4 hrs under shaking condition by LC-MS/MS analysis; assay type: ADME, cell-free; settings: read-out: PPB (converted)
[15] = Protein binding in Sprague-Dawley rat plasma at 10 uM incubated for 4 hrs under shaking condition by LC-MS/MS analysis; assay type: ADME, cell-free; settings: read-out: PPB (converted)
[16] = Protein binding in pooled human plasma at 10 uM incubated for 4 hrs under shaking condition by LC-MS/MS analysis; assay type: ADME, cell-free; settings: read-out: PPB (converted)
[17] = Intrinsic clearance in rat liver microsomes at 1 uM in presence of NADPH and measured up to 30 mins by LC-MS/MS analysis; assay type: ADME, Microsome; settings: read-out: CLH
[18] = Intrinsic clearance in human liver microsomes at 1 uM in presence of NADPH and measured up to 30 mins by LC-MS/MS analysis; assay type: ADME, Microsome; settings: read-out: CLH
[19] = tested on: Escherichia coli; assay: Antibacterial activity against wild type Escherichia coli ATCC 25922 at pH 5.8 by CLSI-based broth microdilution assay; assay type: functional

Row | Compound | MIC [1] [µg/mL] | MIC [2] [µg/mL] | MIC [3] [µg/mL] | MIC [4] [µg/mL] | MIC [5] [µg/mL] | MIC [6] [µg/mL] | other results
1 | Cc1c(N2CC[C@@H]([C@H](C)N)C2)c(F)cc2c(C#N)cc(=O)n(C3CC3)c12 | 1 (≈ 2.82 µM) | 4 (≈ 11.3 µM) | 2 (≈ 5.64 µM) | 1 (≈ 2.82 µM) | 1 (≈ 2.82 µM) | ≤ 0.03 | 
2 | Cc1c(N2CC3CC3(N)C2)c(F)cc2c(CN)c(O)c(=O)n(C3CC3)c12 (configuration not stated) | 0.5 (≈ 1.4 µM) | 2 (≈ 5.58 µM) | 1 (≈ 2.79 µM) | 0.5 (≈ 1.4 µM) | 2 (≈ 5.58 µM) | 0.25 (≈ 0.698 µM) | 
3 | Cc1c(N2C[C@@H]3[C@@H](N)[C@@H]3C2)c(F)cc2c(CN)cc(=O)n(C3CC3)c12 | 1 (≈ 2.92 µM) | 16 (≈ 46.7 µM) | 4 (≈ 11.7 µM) | 1 (≈ 2.92 µM) | 2 (≈ 5.84 µM) | 0.25 (≈ 0.73 µM) | 
4 | C[C@@H]1CN(c2c(F)c(N)c3c(=O)c(C(=O)O)cn(C4CC4)c3c2F)C[C@H](C)N1 [SPARFLOXACIN] |  |  |  |  |  |  | selectivity ratio [7]: > 82
5 | Cc1c(CN)c2cc(F)c(N3CC4CC4(N)C3)c(C)c2n(C2CC2)c1=O (configuration not stated) | 0.25 (≈ 0.701 µM) | 8 (≈ 22.4 µM) | 1 (≈ 2.81 µM) | 1 (≈ 2.81 µM) | 2 (≈ 5.61 µM) | 0.125 (≈ 0.351 µM) | 
6 | Cc1c(N2CC[C@@H]([C@H](C)N)C2)c(F)cc2c(C(=O)O)cc(=O)n(C3CC3)c12 | > 32 | > 32 | > 32 | > 32 | > 32 |  | pKa [8]: 2.2
7 | Cc1c(N2CC3CC3(N)C2)c(F)cc2c(CN)c(Cl)c(=O)n(C3CC3)c12 (configuration not stated) | 0.25 (≈ 0.663 µM) | 8 (≈ 21.2 µM) | 0.5 (≈ 1.33 µM) | 1 (≈ 2.65 µM) | 2 (≈ 5.31 µM) | 0.06 (≈ 0.159 µM) | 
8 | Cc1c(N2CC[C@@H]([C@H](C)N)C2)c(F)cc2c(CO)cc(=O)n(C3CC3)c12 | 16 (≈ 44.5 µM) | 16 (≈ 44.5 µM) | 32 (≈ 89 µM) | 4 (≈ 11.1 µM) | 8 (≈ 22.3 µM) | 0.25 (≈ 0.696 µM) | 
9 | Cc1c(N2CC[C@@H]([C@H](C)N)C2)c(F)cc2cc(C(=O)O)c(=O)n(C3CC3)c12 | 4 (≈ 10.7 µM) |  | 8 (≈ 21.4 µM) |  | 64 (≈ 171 µM) |  | IC50 [9]: 2910 nM; IC50 [10]: 4800 nM; Selectivity ratio [11]: 8
10 | N#Cc1c(N2CC3CC3(N)C2)c(F)cc2c(CN)cc(=O)n(C3CC3)c12 (configuration not stated) | 1 (≈ 2.83 µM) | 16 (≈ 45.3 µM) | 2 (≈ 5.66 µM) | 2 (≈ 5.66 µM) | 4 (≈ 11.3 µM) | 0.125 (≈ 0.354 µM) | 
11 | Cc1c(N2CC[C@@H]([C@H](C)N)C2)c(F)cc2c(Cl)cc(=O)n(C3CC3)c12 | 2 (≈ 5.5 µM) | 8 (≈ 22 µM) | 4 (≈ 11 µM) | 4 (≈ 11 µM) | 8 (≈ 22 µM) | 0.06 (≈ 0.165 µM) | 
12 | Cc1c(N2CCC3CC3(N)C2)c(F)cc2c(CN)cc(=O)n(C3CC3)c12 (configuration not stated) | 4 (≈ 11.2 µM) | 16 (≈ 44.9 µM) | 4 (≈ 11.2 µM) | 4 (≈ 11.2 µM) | 16 (≈ 44.9 µM) | 1 (≈ 2.81 µM) | 
13 | Cc1c(N2CC[C@@H]([C@H](C)N)C2)c(F)cc2ccc(=O)n(C3CC3)c12 | 1 (≈ 3.04 µM) | 16 (≈ 48.6 µM) | 4 (≈ 12.1 µM) | 4 (≈ 12.1 µM) | 8 (≈ 24.3 µM) | 0.06 (≈ 0.182 µM) | solubility at 24 h [12]: 498 µg/mL (≈ 1510 µM); logD [13]: 0.74; IC50 [9]: 430 nM; IC50 [10]: 390 nM; fraction unbound at 4 h, 10 µM [14]: 0.19; fraction unbound at 4 h, 10 µM [15]: 0.25; fraction unbound at 4 h, 10 µM [16]: 0.1; microsomal CLint at 1 µM [17]: 10 µL/min/mg; microsomal CLint at 1 µM [18]: < 7.7 µL/min/mg; MIC [19]: 16 µg/mL (≈ 48.6 µM)
14 | Cc1c(N2CC[C@@H](N)C2)c(F)cc2c(CN)cc(=O)n(C3CC3)c12 | 16 (≈ 48.4 µM) | > 32 | 8 (≈ 24.2 µM) | 8 (≈ 24.2 µM) | 32 (≈ 96.9 µM) | 2 (≈ 6.05 µM) | 
15 | Cc1c(N2CC[C@@H]([C@H](C)N)C2)c(F)cc2c(O)cc(=O)n(C3CC3)c12 | > 32 | > 32 | > 32 | > 32 | > 32 | 16 (≈ 46.3 µM) | pKa [8]: 5.7
16 | Cc1c(N2CC[C@@H]([C@H](C)N)C2)c(F)cc2c(=O)n(N)c(=O)n(C3CC3)c12 | 1 (≈ 2.77 µM) | 4 (≈ 11.1 µM) | 2 (≈ 5.53 µM) | 1 (≈ 2.77 µM) | 2 (≈ 5.53 µM) |  | IC50 [10]: 220 nM
